Test results: patent publication US20230151371A1, “POLYPEPTIDES HAVING EPOXY GROUP-REMOVING CATALYTIC ACTIVITY, NUCLEIC ACIDS ENCODING THE POLYPEPTIDES AND USE THEREOF” (priority 2020, published 2023)
Read-outs that look alike come from different tables or passages of the source.

How the values were obtained:
[1] = test system: normal human esophageal epithelial cells (HEECs)
[2] = test system: human embryonic kidney cell 293-derived line (293T)
[3] = test system: pancreatic cancer cell line (PATU8988)

Measured: cell viability (CCK-8, OD450)

3-acetyl-deoxynivalenol [3-ADON]
decreased sharply: [1]; HEEC, 48 h treatment | [2]; 293T, 48 h treatment | [3]; PATU8988, 48 h treatment

15-acetyl-deoxynivalenol [15-ADON]
decreased sharply: [1]; HEEC, 48 h treatment | [2]; 293T, 48 h treatment | [3]; PATU8988, 48 h treatment

HT-2 toxin
decreased sharply: [1] | [2] | [3]

deoxynivalenol [DON]
decreased sharply: [1]; HEEC, 48 h treatment | [2]; 293T, 48 h treatment | [3]; PATU8988, 48 h treatment

fusarenon-X [FUS-X]
decreased sharply: [1]; HEEC, 48 h treatment | [2] | [3]
